Experimental data reported in US20220339135A1, “COMPOSITIONS AND METHODS FOR MODULATING AN INFLAMMATORY RESPONSE” (Enzychem Lifesciences Corporation, priority 2019, published 2022).

Tests used:
[1] = system: intracellular lysosomes of Raw264.7 cells; assay: LPS-induced lysosomal activity (LYSO-ID); type: cell-based; conditions: LPS/PLAG treatment
Method: Raw264.7 cells were divided into two groups: 1) LPS treated group and 2) LPS/PLAG treated group. For the LPS treated group, cells were treated with 100 μg/ml of DMSO (as solvent control) for 1 hour and treated with LPS (100 ng/ml) for 15, 30, 60, and 120 minutes. For LPS/PLAG treated group, cells were treated with PLAG (100 μg/ml) for 1 hour and treated with LPS (100 ng/ml) for 15, 30, 60, and 120 minutes. Cells were then fixed and stained using rat anti-TLR4/MD2 antibody with Alexa488-conjugated anti-rat IgG secondary antibody. These were analyzed by confocal microscopy. Raw264.7 cells stimulated under the same conditions were fixed, permeabilized, and stained with CM-H2DCFDA, the LYSO-ID® Lysosomal Detection Kit and rabbit anti-p47phox. Confocal microscopy was performed; all data shown represent one experiment performed in triplicate.

[2] = Whole-body autoradiography after single oral [14C] PLAG; type: in vivo, rats; conditions: 200 mg/kg oral
Method: Tissue distribution of the PLAG after single oral administration of [^14C] PLAG was conducted in Biotoxtech (Korea) using whole-body autoradiography. Crl:CD (SD) strain albino rats received the single oral administration of [^14C] PLAG at a dose of 200 mg/kg and the animals were sacrificed by CO2 asphyxiation at defined times, and whole body autoradiograms were prepared to investigate the tissue distribution of radioactivity and its time course. Sampling time points are 15 minutes, 1 hour, 8 hours, and 24 hours after administration. The carcass was sliced into 40 micro meter-thick coronal plane sections that were collected on adhesive tape (NA-70, Nakagawa). The freeze-dried sections covered with a protective membrane were placed in contact with imaging plate (BAS-SR2025, Fuji Photo Film) and the plates were exposed in lead-sealed boxes at room temperature for 24 hours. After exposure, the radioactivity recorded on the imaging plate was analyzed using a bio-imaging analyzer system.

[3] = PLAG uptake in the cisterna chyli (TG colorimetric assay); type: in vivo, mice
Method: Balb/c mice were purchased from Koatech Co. (Pyungtaek, Republic of Korea) and maintained under specific pathogen-free conditions. All animal experimental procedures were performed in accordance with the Guide for the Care and Use of Laboratory Animals. The study included 30 male Balb/c mice (mean age: 9 weeks, range: 8 to 10 weeks). For the time point study (experiment 1), mice were divided into 5 groups, with 3 mice per group. Mice were given a single administration of PLAG orally (2500 mg/kg BW) in a volume of 150 μL. And then mice are sacrificed after various time intervals, 0, 15, 30 and 60 minutes. To determine the difference in PLAG concentration (experiment 2), mice were divided into 5 groups, with 3 mice per group. They were given a single administration of PLAG orally (50, 250, 500, and 2500 mg/kg BW) in a volume of 150 μL, then sacrificed after 1 h post-injection.
The blood sample was obtained under anesthesia by heart puncture. Serum samples were separated by centrifuge 3,000 rpm for 10 minutes and stored at −80° C. for analysis. Lymph fluid from the cisterna chyli was collected according to the methods described by Masayuki, lymph fluid in cisterna chyli appears milky white color with a high concentration of triglyceride (TG) and located along the abdominal vena cava and aorta on the cranial side of the renal vein. A 30 ½-gauge syringe was carefully inserted into cisterna chyli. Then recovered the lymphatic fluid, diluted liquid with 10 uL of phosphate-buffered saline (Welgene, Gyeongsangbuk-do, Republic of Korea). Diluted lymph fluid samples were kept frozen for assay.
Triglyceride in blood and lymph fluid was measured using a commercial assay kit (Wako Diagnostics, Osaka, Japan). Because PLAG has structural similarities to TGs containing glycerol backbone, this method may be applicable to PLAG detection. Multi calibrator lipids (Wako) were used for standard reagent. The absorbance was read at 650 nm using an ELISA microplate reader (Molecular Devices Corporation).
2500mpk of PLAG was orally administered to diet mice whose body weight is 25 g, absorbed PLAG was collected from cisterna chyli at 1 hr. Absorbed PLAG was evaluated by TG colorimetric assay. The TG concentration was multiplied by the dilution factor and the conversion factor, which is the coefficient required to convert to triglyceride concentration to the PLAG concentration. Administered 62.5 mg of PLAG was absorbed through enterocytes and detected 28.2 mg of PLAG at cisterna chyli within 1 hour with about 50% of absorptive efficacy (FIG. 21E).

## CCCCC/C=C\C/C=C\CCCCCCCC(=O)OC(COC(C)=O)COC(=O)CCCCCCCCCCCCCCC (racemic) [PLAG, 1-palmitoyl-2-linoleoyl-3-acetylglycerol]
[1]
  lysosomal activity initiated: 15 min
  return to homeostatic levels of lysosomal activity: 60 min
[2]; 15 minutes to 1 hour
  radioactivity in stomach and intestinal tract incl. luminal contents: high levels
[2]; 8 hours
  radioactivity in the liver and brown fat tissues: Moderate levels
  radioactivity in the luminal side of the stomach: high levels
[2]; 24 hours
  radioactivity in the liver: low levels
[2]; any sampling time point
  radioactivity in other tissues: not different from background level
[2]; up to 1 hour
  radioactivity in the liver: Low levels
[3]; 62.5 mg administered (2500mpk, 25 g mice), 1 hr
  PLAG detected at cisterna chyli / lymph fluid: 28.2 mg
[3]; 50, 250, 500, 2500mpk, dose-dependent
  time absorbed PLAG observed at the cisterna chyli: ≤ 1 h
[3]; 2500mpk, mice fasted 6 hours
  time PLAG detected in cisterna chyli: 60 min
[3]; cisterna chyli within 1 hour
  absorptive efficacy: about 50%
